Where two headings read alike, the source gives them in different places. A value given as a limit tells only on which side of the number the result lay.

The target of experiment [1] is melatonin MT-1 sub-receptor (Homo sapiens, UniProt P48039). The settings on record: Table 7. How it is done:
(§1) Each of those receptors were analyzed by methods known in the art. Initial assessment of binding at 100×10^−7 M (10 micro molar) was performed in duplicate.

A further experiment deals with T1, MT2 receptor (Homo sapiens, UniProt P49286).
T1 sequence (P49286 1-362): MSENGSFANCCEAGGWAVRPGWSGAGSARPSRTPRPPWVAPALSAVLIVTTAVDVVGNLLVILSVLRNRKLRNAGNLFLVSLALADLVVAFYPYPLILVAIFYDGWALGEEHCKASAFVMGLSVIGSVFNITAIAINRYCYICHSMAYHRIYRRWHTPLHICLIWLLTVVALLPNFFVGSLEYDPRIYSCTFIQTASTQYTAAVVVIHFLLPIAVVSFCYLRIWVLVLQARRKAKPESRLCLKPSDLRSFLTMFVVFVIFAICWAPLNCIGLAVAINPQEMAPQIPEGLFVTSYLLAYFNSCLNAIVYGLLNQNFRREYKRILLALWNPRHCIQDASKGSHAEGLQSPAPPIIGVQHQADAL
The settings on record: at 100×10^−7 M. How it is done: as §1

The next experiment addresses T2, 5-HT2B receptor (Homo sapiens, UniProt P41595).
T2 construct: expressed in transfected cells; host or cells: CHO cells
Briefly: 5-HT2B binding affinity, human recombinant-CHO cells, 5-HT as control (Bonhaus). As to conditions: for IC50: agonist 5-HT2B receptor. As for the experimental part:
as §1

Experiment [2] has as its target melatonin ML-1. The experiment is described as follows: ML1 binding affinity, chicken brain. The settings on record: Table 2; relative potency compared to CCB. As for the experimental part: as §1
Experiment [3] concerns the target T3, melatonin ML-1.
T3 construct: chicken brain
The experiment is described as follows: ML1 binding affinity, chicken brain. The settings on record: Table 1; chicken brain. As for the experimental part:
as §1

melatonin MT-1 sub-receptor, sequence (P48039 whole entry): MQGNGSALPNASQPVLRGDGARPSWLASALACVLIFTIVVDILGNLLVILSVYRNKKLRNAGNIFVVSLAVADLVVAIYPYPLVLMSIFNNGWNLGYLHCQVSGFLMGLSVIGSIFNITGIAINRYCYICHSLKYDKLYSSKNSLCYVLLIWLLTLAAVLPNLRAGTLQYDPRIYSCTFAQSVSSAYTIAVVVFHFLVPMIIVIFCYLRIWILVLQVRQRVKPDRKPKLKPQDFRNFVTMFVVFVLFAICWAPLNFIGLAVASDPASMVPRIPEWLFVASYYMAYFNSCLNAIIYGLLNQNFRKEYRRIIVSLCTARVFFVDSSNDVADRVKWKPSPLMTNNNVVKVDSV
T2 sequence (P41595 whole entry): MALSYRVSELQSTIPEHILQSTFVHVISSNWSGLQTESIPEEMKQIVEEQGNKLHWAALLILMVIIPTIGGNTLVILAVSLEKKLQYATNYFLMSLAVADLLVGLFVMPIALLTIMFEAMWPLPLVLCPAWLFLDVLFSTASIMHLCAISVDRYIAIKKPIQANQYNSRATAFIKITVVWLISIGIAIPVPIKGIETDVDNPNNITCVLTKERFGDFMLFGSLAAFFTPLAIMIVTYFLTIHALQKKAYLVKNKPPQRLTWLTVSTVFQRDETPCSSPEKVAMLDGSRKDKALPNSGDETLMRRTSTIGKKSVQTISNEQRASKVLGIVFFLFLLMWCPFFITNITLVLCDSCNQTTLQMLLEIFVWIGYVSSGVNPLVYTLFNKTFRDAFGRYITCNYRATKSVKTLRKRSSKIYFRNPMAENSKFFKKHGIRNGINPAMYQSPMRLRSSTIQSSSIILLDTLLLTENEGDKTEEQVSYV

As to `COc1ccc(CCN(C)CCC[C@](C#N)(c2ccc(OC)c(OC)c2)C(C)C)cc1OC` [R-verapamil, (R)-verapamil], the “% Binding MT-1” value in experiment [1] (at 0.1 ×10^−7 M) was determined as 13%; in experiment [1] (at 0.3 ×10^−7 M), 35%; in experiment [1] (at 1.0 ×10^−7 M), 67%; in experiment [1] (at 3.0 ×10^−7 M), 83%. At MT2 receptor, the “percentage of binding MT2” value is reported as 0%.
`COC(=O)C1=C(C)NC(C)=C(C(=O)OC(C)C)C1c1cccc2nonc12` (centres unmarked) [Isradipine]: the IC50 was over 10000 nM on 5-HT2B receptor (Table 1) and 2000 nM at melatonin ML-1 [3]. Moreover, the “percentage of binding 5-HT2B” value at 5-HT2B receptor (Table 1, at 100×10^−7 M) worked out at 3%. The “(IC50: 5-HT2B)/(IC50: CCB)” value on 5-HT2B receptor (Table 2, relative potency compared to CCB) is listed as 21,739. Further, the “(IC50: ML-1)/(IC50: CCB)” value at melatonin ML-1 [2] is listed as 4,348.
In the case of `CCOC(=O)C1=C(C)NC(C)=C(C(=O)OC)C1c1cccc(Cl)c1Cl` (centres unmarked) [Felodipine], the IC50 on 5-HT2B receptor (Table 1) came out at 1300 nM.

By IC50 is commonly meant the concentration at which inhibition is half-maximal.

Values taken from patent US20090023814A1, “COMPOSITIONS AND METHODS HAVING MT1 RECEPTOR ACTIVITY” (AGI Therapeutics Research Ltd., priority 2007, published 2009).
